According to US20050227956A1, “Control of mold growth on wood” (priority 2004, published 2005):
Where two headings read alike, the source gives them in different places. Marks after values point to notes of the source that are not given here.

Columns and labels:
Assay in all cases: Six-well plate screening test
[1] = tested on: Aspergillus niger; assay type: cell-based
[2] = tested on: Aureobasidium pullulans; assay type: cell-based
[3] = tested on: Cladosporium cladosporioides; assay type: cell-based
[4] = tested on: Penicillium funiculosum; assay type: cell-based
[5] = tested on: Alternaria alternata; assay type: cell-based
[6] = tested on: Trichoderma virens; assay type: cell-based
[7] = tested on: Stachybotrus charatrum; assay type: cell-based
[8] = tested on: Mold from ACQ wood; assay type: cell-based, cephalosporium; settings: 10 days of incubation at room temperature
[9] = 10 days of incubation at room temperature
[10] = single moldicide or ACQ-C alone, incubation period 14 days
[11] = single moldicide, incubation period 21 days

Compound | Minimum Inhibitory Concentrations (MIC) [1, 9] [mg/kg] | Minimum Inhibitory Concentrations (MIC) [2, 9] [mg/kg] | Minimum Inhibitory Concentrations (MIC) [3, 9] | Minimum Inhibitory Concentrations (MIC) [4, 9] [mg/kg] | Minimum Inhibitory Concentrations (MIC) [5, 9] [mg/kg] | Minimum Inhibitory Concentrations (MIC) [6, 9] [mg/kg] | Minimum Inhibitory Concentrations (MIC) [7, 9] [mg/kg] | other results
CC1(c2ccc(Oc3ccccc3)cc2)OC(=O)N(Nc2ccccc2)C1=O (racemic) [FAMOXATE, (RS)-3-anilino-5-methyl-5-(4-phenoxyphenyl)-1,3-oxazolidine-2,4-dione] | >100 | >100 | >100 mg/kg | >100 | >100 | >100 | >100 | –
CC(Cc1ccc(C(C)(C)C)cc1)CN1C[C@@H](C)O[C@@H](C)C1 (mixture of isomers) [Fenpropimorph, (RS)-cis-4-[3-(4-tert-butylphenyl)-2-methylpropyl]-2,6-dimethylmorpholine] | >100 | 10 | 50 mg/kg | >100 | 50 | 10 | 10 | –
CC(C)(C)C(=O)C(Oc1ccc(Cl)cc1)n1cncn1 (racemic) [Tridimefon, (RS)-1-(4-chlorophenoxy)-3,3-dimethyl-1-(1H-1,2,4-triazol-1-yl)butan-2-one] | >100 | >100 | >100 mg/kg | >100 | >100 | >100 | >100 | –
CO/C=C(/C(=O)OC)c1ccccc1Oc1cc(Oc2ccccc2C#N)ncn1 [Azoxystrobin, methyl (E)-2-{2-[6-(2-cyanophenoxy)pyrimidin-4-yloxy]phenyl}-3-methoxyacrylate] | >100 | >100 | >100 mg/kg | >100 | >100 | >100 | 25 | –
CC(C)(C)C(O)C(Oc1ccc(Cl)cc1)n1cncn1 (stereo not drawn) [BAYTAN, (1RS,2RS; 1RS,2SR)-1-(4-chlorophenoxy)-3,3-dimethyl-1-(1H-1,2,4-triazol-1-yl)butan-2-ol] | >100 | 50 | 50 mg/kg | >100 | >100 | >100 | >100 | –
CCCCNC(=O)n1c(NC(=O)OC)nc2ccccc21 [Benomyl, methyl 1-(butylcarbamoyl)benzimidazol-2-ylcarbamate] | 10 | 100 | 1^a mg/kg | 1 | >100 | 1 | – | –
COC(=O)Nc1nc2ccccc2[nH]1 [Carbendazim, methyl benzimidazol-2-ylcarbamate] | 5 | 0.1 | 1^a mg/kg | 1 | >100 | 1 | – | –
CC1=C(C(=O)Nc2ccccc2)SCCO1 [Carboxin, 5,6-dihydro-2-methyl-1,4-oxathiine-3-carboxanilide] | >100 | 100 | 100 mg/kg | >100 | >100 | – | 100 | Minimum Inhibitory Concentrations (MIC) [8]: >100 mg/kg
CCNC(=O)NC(=O)C(C#N)=NOC [Cymoxinil, 1-(2-cyano-2-methoxyiminoacetyl)-3-ethylurea] | 10 | >100 | >100 mg/kg | >100 | >100 | >100 | >100 | MIC [1, 10]: >100 mg/kg; MIC [2, 10]: >100 mg/kg; MIC [3, 10]: >100 mg/kg; MIC [4, 10]: >100 mg/kg; MIC [5, 10]: >100 mg/kg; MIC [6, 10]: >100 mg/kg
Cc1cc(C2CC2)nc(Nc2ccccc2)n1 [Cyprodinil, 4-cyclopropyl-6-methyl-N-phenylpyrimidin-2-amine] | 10 | 100 | 100 mg/kg | 100 | 10 | >100 | – | MIC [1, 10]: 100 mg/kg; MIC [1, 11]: >100 mg/kg; MIC [2, 10]: 100 mg/kg; MIC [2, 11]: >100 mg/kg; MIC [3, 10]: 100 mg/kg; MIC [3, 11]: >100 mg/kg; MIC [4, 10]: 100 mg/kg; MIC [4, 11]: 100 mg/kg; MIC [5, 10]: 12.5 mg/kg; MIC [5, 11]: 50 mg/kg; MIC [6, 10]: 100 mg/kg; MIC [6, 11]: >100 mg/kg; MIC [7, 10]: 100 mg/kg; MIC [7, 11]: 100 mg/kg; Minimum Inhibitory Concentrations (MIC) [8]: >100 mg/kg
N#Cc1c[nH]cc1-c1cccc(Cl)c1Cl [Fenpiclonil, 4-(2,3-dichlorophenyl)-1H-pyrrole-3-carbonitrile] | 1 | 50 | 10 mg/kg | >100 | 50 | >100 | 10 | –
O=[N+]([O-])c1cc(C(F)(F)F)c(Cl)c([N+](=O)[O-])c1Nc1ncc(C(F)(F)F)cc1Cl [Fluazinam, 3-chloro-N-(3-chloro-5-trifluoromethyl-2-pyridyl)-alpha,alpha,alpha-trifluoro-2,6-dinitro-p-toluidine] | 1 | 1 | 1 mg/kg | 10 | 10 | >100 | – | –
CC(C)NC(=O)N1CC(=O)N(c2cc(Cl)cc(Cl)c2)C1=O [Iprodione, 3-(3,5-dichlorophenyl)-N-isopropyl-2,4-dioxoimidazolidine-1-carboxamide] | 10 | >100 | >101 mg/kg | >102 | 100 | >100 | – | –
S=C([S-])NCCNC(=S)[S-].[Na+].[Na+] [Nabam, disodium ethylenebis(dithiocarbamate)] | 100 | 100 | 100 mg/kg | >100 | >100 | 100 | 100 | –
N#CSCSc1nc2ccccc2s1 [TCMBT, 2-(thiocyanomethylthio)benzothiazole] | – | 300 | 30 mg/kg | 30 | 300 | 3 | 3 | MIC [2, 10]: 300 mg/kg; MIC [3, 10]: 30 mg/kg; MIC [4, 10]: 30 mg/kg; MIC [5, 10]: 300 mg/kg; MIC [6, 10]: 3 mg/kg
bis(8-hydroxyquinolinium) sulfate [8-hydroxyquinoline] | – | – | – | – | – | – | – | Minimum Inhibitory Concentrations (MIC) [1]: 100 mg/kg; Minimum Inhibitory Concentrations (MIC) [2]: 50 mg/kg; Minimum Inhibitory Concentrations (MIC) [3]: 25 mg/kg; Minimum Inhibitory Concentrations (MIC) [4]: 25 mg/kg; Minimum Inhibitory Concentrations (MIC) [5]: 25 mg/kg; Minimum Inhibitory Concentrations (MIC) [6]: 25 mg/kg; Minimum Inhibitory Concentrations (MIC) [7]: 10 mg/kg
